Among the data in ChEMBL document CHEMBL1156829 (Proc Natl Acad Sci U S A, 2008) are EC50 and CC50 values, retold here.

Data set [1] has as its system Plasmodium falciparum. The data set is described as follows: NOVARTIS: Inhibition of Plasmodium falciparum W2 (drug-resistant) proliferation in erythrocyte-based infection assay. It is filed as functional, organism-based. The note with it: Plasmodium falciparum, W2; read-out: EC50.
Data set [2] concerns Plasmodium falciparum. The data set is described as follows: NOVARTIS: Inhibition of Plasmodium falciparum 3D7 (drug-susceptible) proliferation in erythrocyte-based infection assay. It is filed as functional, organism-based. The note with it: Plasmodium falciparum, 3D7.
The nature of data set [3]: NOVARTIS: Cytotoxicity against human hepatocellular carcinoma cell line (Huh7). In kind it is toxicity, cell-based, Huh-7. The note with it: Huh7 cells (hepatocellular carcinoma cell line).

Molecules are shown by their SMILES.

As to `CN(C)c1cc(NC(=O)Nc2cccc(Cl)c2)c2ccccc2n1`, the EC50 in data set [1] stood at 292 nM; in data set [2], 76.5 nM. Besides, the 50% cytotoxic concentration (CC50) in data set [3] was over 10 µM.
Consider `COc1ccc2nc(C)cc(Nc3ccc(Oc4ccc5ccccc5c4)c(Cl)c3)c2c1`, for which the results for the EC50 in data set [1] and in data set [2] were 206 nM and 166 nM, respectively. This compound showed a CC50 in data set [3] of 7.07 µM.
Regarding `Cc1ccccc1Nc1nc(NCCO)c2ccccc2n1`, the EC50 in data set [1] came to 689 nM; in data set [2] it was 1710 nM. In data set [3], this compound returned a CC50 of 23.7 µM.
With `CC(C)NC(=O)c1cc(NC(=O)c2cccs2)ccc1N1CCc2ccccc2C1`, the EC50 worked out at 479 nM in data set [1] and 1260 nM in data set [2]. For the same compound, the midpoint of cytotoxicity in data set [3], the CC50, lay at 16.3 µM.
`COc1ccc(C=NNc2nc(Nc3ccc([N+](=O)[O-])cc3)nc(N3CCN(C)CC3)n2)cc1OC`: the EC50 in data set [1] came out at 444 nM; in data set [2] it was 1820 nM. In data set [3], this compound gave a CC50 of 15.2 µM.
For the compound `Cc1cc(N2CCN(C)CC2)nc2ccc(NC(=O)/C=C/c3ccc4c(c3)OCO4)cc12`, the EC50 was 292 nM in data set [1] and over 1250 nM in data set [2]. In data set [3], the CC50 was over 10 µM.
The matching figures for `COC(=O)c1cccc(NC(=O)C(=Cc2cccc([N+](=O)[O-])c2)NC(=O)c2ccccc2OC)c1`: 2910 nM, 994 nM and over 100 µM.
As for `O=C(Nc1ccc(C2=NCCN2)cc1)c1cc(Cl)c(C(=O)Nc2ccc(C3=NCCN3)cc2)cc1Cl`, the EC50 in data set [1] came to 308 nM; in data set [2], 66 nM. The compound also yielded a CC50 in data set [3] of over 10 µM.
With `CC(C)CNC(=O)c1cnc(NCCCn2ccnc2)nc1NC1CCCC1`, the results for the EC50 in data set [1] and in data set [2] were over 298 nM and 678 nM, respectively. In addition, the CC50 in data set [3] was over 10 µM.
On to `N=c1c2ccccc2nnn1-c1cccc(C(F)(F)F)c1`, for which the results for the EC50 in data set [1] and in data set [2] were 308 nM and 134 nM, respectively. For the same compound, the CC50 in data set [3] was over 10 µM.
In the case of `O=C(Nc1ccccc1O)c1ccc(Cl)cc1`, the EC50 in data set [1] was 1090 nM; in data set [2] it was 3260 nM. In data set [3], this compound registered a CC50 of 36.2 µM.
The matching figures for `Cc1cccc(NC(=S)NC2CC3CCCC(C2)N3CCc2ccccc2)c1` (stereo not given): 914 nM, 668 nM and 30.7 µM.
The matching figures for `Cc1ccc(C)c(S(=O)(=O)N=C2C=C(SCC(=O)O)C(=O)c3ccccc32)c1`: 527 nM, 3600 nM and 17.7 µM.
Regarding `COc1ccc2nc3ccccc3c(N)c2c1`, the EC50 in data set [1] is 176 nM; in data set [2], 133 nM. The compound further gave a CC50 in data set [3] of 5.72 µM.
For `COc1ccc(CCN2CC(CNC(=O)Cc3cccnc3)C(c3ccc(N(C)C)cc3)C2)cc1OC` (stereo not given), the EC50 in data set [1] is over 306 nM; in data set [2], 997 nM. The compound also gave a cytotoxic concentration (CC50) in data set [3] of over 10 µM.
`CCc1ccc2[nH]c(=O)c(CN(Cc3ccc(OC)cc3)C(=S)NCCCN(CC)CC)cc2c1`: the EC50 in data set [1] worked out at 554 nM; in data set [2] it was 3460 nM. Also, the midpoint of cytotoxicity in data set [3], the CC50, lay at 18.2 µM.
For `COc1ccc(CN2CCc3nc(N4CCCCC4)sc3C2)cc1`, the values for the EC50 in data set [1] and in data set [2] were 301 nM and 293 nM, respectively. Further, the CC50 in data set [3] was over 10 µM.
The matching figures for `CCOC(=O)N1CCc2c(sc(NCc3ccc(C)o3)c2C(=O)Nc2ccc(OC)cc2OC)C1`: 3010 nM, 9100 nM and over 100 µM.
Take `CC[n+]1c(C)cc2c([nH]c3ccccc32)c1C`: the EC50 came out at 3000 nM in data set [1] and 1240 nM in data set [2]. In addition, in data set [3], the CC50 is over 100 µM.
Consider `CCOc1ccc(C2C(C(=O)OCCc3ccccc3)=C(C)NC3=C2C(=O)CC(C)(C)C3)cc1` (stereo not given), for which the values for the EC50 in data set [1] and in data set [2] were 2940 nM and 10700 nM, respectively. For the same compound, in data set [3], the CC50 was over 100 µM.
The matching figures for `Cc1ccc(-n2cc(C(=O)N(C)Cc3ccccc3)c3ccccc3c2=O)cc1C`: 2930 nM, over 9840 nM and over 100 µM.
Regarding `Cc1nc(-c2nc3c(s2)CN(C(=O)COc2ccc(Cl)cc2)CC3)cs1`, the EC50 was 2920 nM in data set [1] and over 10700 nM in data set [2]. In addition, in data set [3], the CC50 is over 100 µM.
The matching figures for `Cc1cc(N2CCCC2)nc2ccc(NC(=S)NCCN3CCc4ccccc4C3)cc12`: 629 nM, 44 nM and 21.5 µM.
The matching figures for `COCCNCC(O)CON=C1c2ccccc2-c2ccccc21` (stereo not given): 704 nM, 4790 nM and 23.3 µM.
In the case of `COCCN(C)C(=O)COC(c1cccs1)c1cccnc1Cl` (stereo not given), the EC50 in data set [1] was found to be 299 nM; in data set [2], 407 nM. Moreover, the CC50 in data set [3] was over 10 µM.
The matching figures for `CCOC(=O)c1c(C)oc2c1c1c(c3ccccc32)OCN(C2CCCC2)C1`: 2960 nM, 11100 nM and over 100 µM.
The matching figures for `Fc1ccc(Nc2nc(NCC3CCCO3)c3ccccc3n2)cc1` (stereo not given): 282 nM, 214 nM and 9.53 µM.
Regarding `CCCc1c(C)nc2ccc(C)cc2c1O`, the values for the EC50 in data set [1] and in data set [2] were 2960 nM and 3220 nM, respectively. Further, the CC50 in data set [3] is over 100 µM.
On the same counts, the results for `COc1ccc2cc(CNCCCO)c(N3CCN(c4ccc(F)cc4)CC3)nc2c1` are 600 nM, 2990 nM and 20.1 µM.
The matching figures for `O=C(CCn1c(=O)[nH]c2ccccc21)NCC1Cc2cccc(-c3ccncc3)c2O1` (stereo not given): 2980 nM, 3250 nM and over 100 µM.
As to `COCCn1c(SCC(=O)c2ccc(C)cc2C)nnc1-c1ccco1`, the EC50 is 295 nM in data set [1] and over 868 nM in data set [2]. In addition, the CC50 in data set [3] is over 10 µM.
As to `CCCCNC(=S)N(Cc1cccs1)Cc1cc2cc(C)ccc2[nH]c1=O`, the EC50 in data set [1] was 295 nM; in data set [2] it was 1020 nM. The same compound yielded a CC50 in data set [3] of over 10 µM.
For the compound `COc1ccccc1-n1c(S)nnc1-c1ccccc1O`, the results for the EC50 in data set [1] and in data set [2] were 295 nM and 276 nM, respectively. The compound further registered a CC50 in data set [3] of over 10 µM.
The matching figures for `O=C(Nc1cc(Cl)ccc1O)c1cnn2c(C(F)(F)F)cc(-c3ccc(F)cc3)nc12`: 2910 nM, over 8740 nM and over 100 µM.
Regarding `O=C(NCc1ccccc1)c1cnc(NCCC(c2ccccc2)c2ccccc2)nc1NCC1CCCCC1`, the results for the concentration for a half-maximal effect (EC50) in data set [1] and in data set [2] were 292 nM and 527 nM, respectively. The CC50 in data set [3] was over 10 µM.
Regarding `CCCCCCCN(CCCCCCC)CC(O)c1cc2ccccc2c2cc(Br)ccc12` (stereo not given), the EC50 in data set [1] is 136 nM; in data set [2] it was 867 nM. For the same compound, the CC50 in data set [3] is over 4.63 µM.
The matching figures for `CC1(C)O[C@@H]2OC([C@@H](O)CNc3ccc([N+](=O)[O-])cc3[N+](=O)[O-])C(O)[C@@H]2O1` (stereo not given in full): 366 nM, 299 nM and 12 µM.
The matching figures for `COC1=CC(=O)c2c(ccc3c(OC)c(O)ccc23)C1=O`: 302 nM, 200 nM and over 10 µM.
The matching figures for `CCOC(=O)c1ccc2nc(C)cc(Nc3ccc(N4CCCCC4)cc3)c2c1`: 634 nM, 292 nM and 21.2 µM.
As for `CCOc1ccc(Nc2nc(NCc3ccccc3)c3ccccc3n2)cc1`, the values for the EC50 in data set [1] and in data set [2] were 170 nM and 88.2 nM, respectively. In data set [3], this compound yielded a CC50 of 5.67 µM.
On to `CCOc1ccc2[nH]c3c(NCCCN(C)C)ncnc3c2c1`, for which the EC50 stood at 778 nM in data set [1] and 203 nM in data set [2]. Besides, the CC50 in data set [3] turned out to be 26.6 µM.
With `Cc1ccc(NC(=O)COc2ccc(Cl)cc2Cl)nc1`, the EC50 in data set [1] was over 3030 nM; in data set [2] it was over 5570 nM. The compound further registered a CC50 in data set [3] of over 100 µM.
On the same counts, the results for `CCN1CCN(Cc2cc(=O)oc3cc(-c4ccccc4)c(O)cc23)CC1` are 385 nM, 284 nM and 12.5 µM.
Consider `C=C[C@H]1CN2CC[C@H]1C[C@@H]2[C@@H](OC(=O)c1cccs1)c1ccnc2ccccc12`, for which the EC50 in data set [1] amounted to 294 nM; in data set [2], 1130 nM. Further, the CC50 in data set [3] is over 10 µM.
Consider `Cc1cc(Br)cc(Cl)c1OC(=O)c1ccno1`, for which the EC50 in data set [1] is 3000 nM; in data set [2], over 12500 nM. The same compound returned a CC50 in data set [3] of over 100 µM.
As for `Cc1n(-c2ccccc2)c2c([n+]1C)C(=O)c1ccccc1C2=O`, the figures for the EC50 in data set [1] and in data set [2] were 12.9 nM and 6.55 nM, respectively. This compound came in with a CC50 in data set [3] of 0.427 µM.
The matching figures for `C=CCN1/C(=C/C=C/c2sc3ccccc3[n+]2CC=C)Sc2ccccc21`: 292 nM, 2030 nM and over 10 µM.
The matching figures for `c1ccc([Si]2(c3ccccc3)N[Si](c3ccccc3)(c3ccccc3)N[Si](c3ccccc3)(c3ccccc3)N2)cc1`: 299 nM, 521 nM and over 10 µM.
On the same counts, the results for `Cn1c2ccncc2c2cc([N+](=O)[O-])ccc21` are 938 nM, 833 nM and 31.4 µM.
For the compound `CC(C)N(CC(=O)Nc1cc(C(C)(C)C)nn1-c1ccc(Cl)c(Cl)c1)C(=O)c1ccc2ccccc2c1`, the EC50 in data set [1] is 3000 nM; in data set [2] it was 1310 nM. The half-maximal cytotoxic concentration (CC50) in data set [3] is over 100 µM.
The matching figures for `CCc1cc2c(Nc3ccncc3)ncnc2s1`: 2940 nM, 2500 nM and over 100 µM.
With `CCN1C(C)=C(C)S/C1=C\c1ccc2cc(C)ccc2[n+]1C`, the EC50 was 170 nM in data set [1] and 227 nM in data set [2]. In data set [3], the CC50 was determined as 5.72 µM.
On the same counts, the results for `CCc1ccc(-n2c(C(CC)N(CCc3ccccc3)C(=O)c3cc(OC)cc(OC)c3)nc3ccccc3c2=O)cc1` (stereo not given) are 292 nM, over 547 nM and over 10 µM.
Consider `Cc1onc(O)c1CC(N)C(=O)O` (stereo not given), for which the EC50 in data set [1] was determined as 302 nM; in data set [2], 158 nM. This compound also gave a CC50 in data set [3] of over 10 µM.
On the same counts, the results for `CCc1ccc2[nH]c(=O)c(CN(CCN(CC)CC)C(=S)NCCCN(CC)CC)cc2c1` are 1390 nM, 2380 nM and 45.6 µM.
